Experimental data taken from patent US7346384B2, “Method of magnetic resonance investigation of a sample using a nuclear spin polarised MR imaging agent” (GE Healthcare AS, priority 2000, dated 2008).

Key:
[1] = T1 relaxation time of the reporter compound; type: physicochemical; details: high T1 agent; 15N storage nucleus; no field or temperature printed for this value
water solubility = type: physicochemical

For `[2H]C([2H])(F)C([2H])([2H])[N+](C)(C)C` [molecule (I)], the T1 value [1] was “about 3 minutes” and the water solubility (water solubility) was “good”.
